The test system of the data set is male Sprague Dawley rats. In words: Cardiotoxicity Assay (heart-to-body weight ratio). The settings on record: 250 μg per kg subcutaneously once daily for 28 days, hearts weighed day 30. The class given is in vivo, rat. The text has this:
The cardiotoxicity assay measures the potential of a test compound to adversely affect the cardiovascular system. As thyroid hormone (T3) damages the cardiovascular system, the heart enlarges. See, e.g., Gomberg-Maitland et al., “Thyroid hormone and Cardiovascular Disease”, American Heart Journal, Vol. 135(2), pp. 187-196 (1998); Klein and Ojamaa, “Thyroid Hormone and the Cardiovascular System”, Current Opinion in Endocrinology and Diabetes, Vol. 4, pp.341-346 (1997); and Klemperer et al., “Thyroid Hormone Therapy and Cardiovascular Disease”, Progress in Cardiovascular Diseases, Vol. 37 (4), pp. 329-336 (1996). This increases the weight of the heart relative to whole body weight. The cardiotoxicity assay herein below is used to test compounds for potentially adverse cardiac effects by measuring their effect on the heart-to-body weight ratio.
Two groups each of six male Sprague Dawley rats (Harlan Sprague Dawley, Inc., Indianapolis, Ind.) (each weighing from approximately 220 grams to 235 grams) are utilized. The first group is a vehicle control group and the second group is a test compound group. The length of the assay is 30 days, with treatment of vehicle or test compound in vehicle daily for 28 of those days as described below.
Prior to initiation of the assay, each rat is allowed to acclimate to standard environmental conditions for 5 days. […]

Each structure is given as a SMILES string.

As for `N[C@@H](Cc1cc(I)c(Oc2cc(I)c(O)c(I)c2)c(I)c1)C(=O)O` [T4, thyroxine], the “cardiac-sparing (index C = RT/RV, heart/body ratio of test compound group over vehicle control group)” value is “not cardiac-sparing”.
